According to patent publication US7884244B2, “Therapeutic fluoroethylcyano guanidines” (Allergan, Inc., priority 2007, dated 2011):
pEC50: −log10 of the molar value.

How the values were obtained:
Type in all cases: cell-based
alpha2B receptor = target: T1, alpha2B receptor (Homo sapiens, UniProt P18089); experiment: Receptor Selection and Amplification Technology (RSAT) assay, alpha2B; conditions: for pEC50: read-out: Alpha 2B EC50; for Alpha 2B IA (intrinsic activity): ratio of maximal effect of drug to maximal effect of standard full agonist brimonidine (UK14304)
T1 construct: expressed in transfected cells; host or cells: NIH-3T3 cells
T1 sequence (P18089 1-450): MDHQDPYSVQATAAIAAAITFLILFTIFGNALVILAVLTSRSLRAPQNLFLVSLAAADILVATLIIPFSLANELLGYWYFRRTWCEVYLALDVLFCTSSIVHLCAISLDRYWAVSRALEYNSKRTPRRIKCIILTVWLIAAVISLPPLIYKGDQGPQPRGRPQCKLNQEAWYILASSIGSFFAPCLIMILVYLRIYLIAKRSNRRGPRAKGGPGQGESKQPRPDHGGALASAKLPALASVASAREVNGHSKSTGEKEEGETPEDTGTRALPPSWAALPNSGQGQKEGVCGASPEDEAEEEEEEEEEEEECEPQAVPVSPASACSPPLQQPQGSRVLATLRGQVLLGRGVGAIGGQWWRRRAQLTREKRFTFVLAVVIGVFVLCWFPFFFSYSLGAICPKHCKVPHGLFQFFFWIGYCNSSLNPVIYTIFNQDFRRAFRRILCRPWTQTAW
Experimental: (§1) The RSAT assay measures a receptor-mediated loss of contact inhibition that results in selective proliferation of receptor-containing cells in a mixed population of confluent cells. The increase in cell number is assessed with an appropriate transfected marker gene such as […]-galactosidase, the activity of which can be easily measured in a 96-well format. Receptors that activate the G protein, Gq, elicit this response. Alpha2 receptors, which normally couple to Gi, activate the RSAT response when coexpressed with a hybrid Gq protein that has a Gi receptor recognition domain, called Gq/i5.
(§2) NIH-3T3 cells are plated at a density of 2×10^6 cells in 15 cm dishes and maintained in Dulbecco's modified Eagle's medium supplemented with 10% calf serum. One day later, cells are cotransfected by calcium phosphate precipitation with mammalian expression plasmids encoding p-SV-[…]-galactosidase (5-10 μg), receptor (1-2 μg) and G protein (1-2 μg). 40 μg salmon sperm DNA may also be included in the transfection mixture. Fresh media is added on the following day and 1-2 days later, cells are harvested and frozen in 50 assay aliquots. Cells are thawed and 100 μl added to 100 μl aliquots of various concentrations of drugs in triplicate in 96-well dishes. Incubations continue 72-96 hr at 37° C. After washing with phosphate-buffered saline, […]-galactosidase enzyme activity is determined by adding 200 μl of the chromogenic substrate (consisting of 3.5 mM o-nitrophenyl-[…]-D-galactopyranoside and 0.5% nonidet P-40 in phosphate buffered saline), incubating overnight at 30° C. and measuring optical density at 420 nm. The absorbance is a measure of enzyme activity, which depends on cell number and reflects a receptor-mediated cell proliferation. The efficacy or intrinsic activity is calculated as a ratio of the maximal effect of the drug to the maximal effect of a standard full agonist for each receptor subtype. Brimonidine, also called UK14304, the chemical structure of which is shown below, is used as the standard agonist for the alpha2A, alpha2B and alpha2C receptors. The EC50 is the concentration at which the drug effect is half of its maximal effect.
(§3) The results of the RSAT assay with several exemplary compounds of the invention are disclosed in Table 1 above together with the chemical formulas of these exemplary compounds. EC50 values are nanomolar. NA stands for “not active” at concentrations less than 10 micromolar. IA stands for “intrinsic activity.”

alpha2A receptor = target: T2, alpha2A receptor (Homo sapiens, UniProt P08913); experiment: Receptor Selection and Amplification Technology (RSAT) assay, alpha2A
T2 construct: expressed in transfected cells; host or cells: NIH-3T3 cells
T2 sequence (P08913 1-465): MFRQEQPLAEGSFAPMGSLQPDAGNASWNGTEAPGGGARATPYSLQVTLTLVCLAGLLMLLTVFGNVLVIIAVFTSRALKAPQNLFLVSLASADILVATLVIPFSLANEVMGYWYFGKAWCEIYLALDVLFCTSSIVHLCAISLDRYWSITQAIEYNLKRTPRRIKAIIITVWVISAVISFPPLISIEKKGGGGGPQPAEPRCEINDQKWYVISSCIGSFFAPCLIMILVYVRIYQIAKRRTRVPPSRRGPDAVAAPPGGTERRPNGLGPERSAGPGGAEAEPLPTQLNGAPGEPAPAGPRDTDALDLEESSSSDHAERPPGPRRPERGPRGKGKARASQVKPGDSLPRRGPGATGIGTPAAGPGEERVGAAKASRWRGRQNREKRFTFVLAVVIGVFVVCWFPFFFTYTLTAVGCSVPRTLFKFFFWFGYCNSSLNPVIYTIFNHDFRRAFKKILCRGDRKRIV
Experimental: as §1, §2, §3

alpha2C receptor = target: T3, alpha2C receptor (Homo sapiens, UniProt P18825); experiment: Receptor Selection and Amplification Technology (RSAT) assay, alpha2C; conditions: for pEC50 / Alpha 2C EC50: RSAT, transfected NIH-3T3 cells with Gq/i5, not active = not active at concentrations less than 10 micromolar; for pEC50: read-out: Alpha 2C EC50; for Alpha 2C IA (intrinsic activity): ratio of maximal effect of drug to maximal effect of standard full agonist brimonidine (UK14304)
T3 construct: expressed in transfected cells; host or cells: NIH-3T3 cells
T3 sequence (P18825 1-462): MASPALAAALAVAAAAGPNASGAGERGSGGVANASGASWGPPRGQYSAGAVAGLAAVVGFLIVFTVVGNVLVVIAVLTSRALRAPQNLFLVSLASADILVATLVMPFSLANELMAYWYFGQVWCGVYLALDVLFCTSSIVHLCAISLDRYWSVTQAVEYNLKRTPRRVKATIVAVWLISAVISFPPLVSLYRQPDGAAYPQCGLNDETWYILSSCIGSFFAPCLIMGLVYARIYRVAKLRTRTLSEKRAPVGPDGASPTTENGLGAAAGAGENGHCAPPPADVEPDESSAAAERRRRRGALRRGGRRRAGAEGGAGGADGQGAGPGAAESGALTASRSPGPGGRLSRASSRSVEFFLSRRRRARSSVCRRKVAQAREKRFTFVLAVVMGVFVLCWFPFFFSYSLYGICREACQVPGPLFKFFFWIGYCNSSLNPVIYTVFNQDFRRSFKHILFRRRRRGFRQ
Experimental: as §1, §2, §3

[1] = RSAT, transfected NIH-3T3 cells with Gq/i5, not active = not active at concentrations less than 10 micromolar

| SMILES | pEC50 (alpha2B receptor; [1]) | Alpha 2B IA (intrinsic activity) (alpha2B receptor) | Alpha 2A EC50 (alpha2A receptor; [1]) | pEC50 (alpha2C receptor) | Alpha 2C IA (intrinsic activity) (alpha2C receptor) | Alpha 2C EC50 (alpha2C receptor) | Alpha 2B EC50 (alpha2B receptor; [1]) | pEC50 (alpha2A receptor; RSAT, transfected NIH-3T3 cells with Gq/i5, not active = not active at concentrations less than 10 micromolar, read-out: Alpha 2A EC50) | Alpha 2A IA (intrinsic activity) (alpha2A receptor; ratio of maximal effect of drug to maximal effect of standard full agonist brimonidine (UK14304)) |
| --- | --- | --- | --- | --- | --- | --- | --- | --- | --- |
| N#C/N=C(/NCCF)NCc1cccc(Br)c1 | 5.84 | 0.82 | not active | 5.58 | 0.32 | – | – | – | – |
| Cc1cccc(CN/C(=N/C#N)NCCF)c1Cl | 7.10 | 0.93 | not active | 6.33 | 0.84 | – | – | – | – |
| N#C/N=C(\NCCF)NC1CCc2ccc(F)c(F)c21 (centres unmarked) | 6.25 | 0.5 | not active | – | – | not active | – | – | – |
| Cc1cccc2c1CCC2N/C(=N\C#N)NCCF (centres unmarked) | 7.13 | 0.95 | not active | 6.04 | 0.51 | – | – | – | – |
| N#C/N=C(/NCCF)NC1CCCc2c(Cl)cccc21 (centres unmarked) | 6.53 | 0.37 | not active | – | – | not active | – | – | – |
| N#C/N=C(/NCCF)N[C@H]1CCc2ccccc21 | 6.75 | 0.92 | not active | – | – | not active | – | – | – |
| N#C/N=C(\NCCF)NC(Cc1ccccc1)c1ccccc1 (centres unmarked) | 7.01 | 0.73 | not active | – | – | not active | – | – | – |
| N#C/N=C(\NCCF)NC1CCc2cccc(F)c21 (centres unmarked) | 6.32 | 0.65 | not active | – | – | not active | – | – | – |
| N#C/N=C(/NCCF)NC1CCc2c(Cl)cccc21 (centres unmarked) | 6.01 | 0.3 | not active | – | – | not active | – | – | – |
| N#C/N=C(/NCCF)NCc1cccc2c1OCC2 | 6.47 | 0.87 | not active | 6.45 | 0.58 | – | – | – | – |
| Cc1ccc2c(c1)C(N/C(=N\C#N)NCCF)CC2 (centres unmarked) | 6.29 | 0.34 | not active | – | – | not active | – | – | – |
| N#C/N=C(/NCCF)NC1Cc2ccccc2C1 | 6.11 | 0.35 | not active | – | – | not active | – | – | – |
| N#C/N=C(/NCCF)NC1CCc2ccccc21 (centres unmarked) | 6.38 | 0.47 | not active | 5.75 | 0.33 | – | – | – | – |
| N#C/N=C(/NCCF)NC1CCCc2c(F)cccc21 (centres unmarked) | 6.64 | 0.69 | not active | 5.71 | 0.42 | – | – | – | – |
| N#C/N=C(\NCCF)NC1CCc2ccc(Cl)cc21 (centres unmarked) | 6.63 | 0.31 | not active | 6.02 | 0.36 | – | – | – | – |
| CCc1cccc2c1CCCC2N/C(=N\C#N)NCCF (centres unmarked) | – | 0.35 | not active | – | – | not active | high | – | – |
| N#C/N=C(/NCCF)NC1CCc2c(F)cccc21 (centres unmarked) | 6.55 | 0.36 | not active | – | – | not active | – | – | – |
| N#C/N=C(/NCCF)NC1CCc2c(Br)cccc21 (centres unmarked) | 5.59 | 0.74 | not active | – | – | not active | – | – | – |
| Cc1cccc2c1CC[C@@H]2N/C(=N\C#N)NCCF | 7.22 | 1.09 | – | 5.82 | 0.46 | – | – | 6.12 | 0.35 |
| N#C/N=C(\NCCF)NC1CCc2cccc(Cl)c21 (centres unmarked) | 6.19 | 0.7 | not active | – | – | not active | – | – | – |
| CCc1cccc2c1CCC2N/C(=N\C#N)NCCF (centres unmarked) | 5.98 | 0.59 | not active | – | – | not active | – | – | – |
| N#C/N=C(\NCCF)NC1CCc2ccc(F)cc21 (centres unmarked) | 6.78 | 0.42 | not active | 6.42 | 0.4 | – | – | – | – |
| Cc1cccc2c1CCCC2N/C(=N\C#N)NCCF (centres unmarked) | 7.03 | 1.06 | not active | 5.83 | 0.41 | – | – | – | – |
| N#C/N=C(/NCCF)NC1CCc2cccc(Br)c21 (centres unmarked) | 6.03 | 0.85 | not active | – | – | not active | – | – | – |
